Reference: patent US7795261B2, “Substituted 1-piperidin-4-yl-4-pyrrolidin-3-yl-piperazine derivatives and their use as neurokinin antagonists” (Janssen Pharmaceutica NV, priority 2002, dated 2010)

Experiments:
Assay type in all cases: cell-based
NK1 = NK1 (Homo sapiens, UniProt P25103); experiment: Signal transduction (ST), intracellular Ca++ (FLIPR), NK1 antagonistic activity; settings: read-out: pIC50 NK1 (converted)
Method in brief: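 Confluent cells loaded with 2 μM Fluo3 (1 h, 37 °C, probenecid), preincubated 20 min at RT with antagonist concentration range, then agonist added. Peak Ca++ transient read by FLIPR in Krebs buffer pH 7.4; IC50 by non-linear regression.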

NK2 = target: T1, NK2 (Homo sapiens, UniProt P21452); experiment: Signal transduction (ST), intracellular Ca++ (FLIPR), NK2; settings: read-out: pIC50 NK2 (converted)
T1 sequence (P21452 1-398): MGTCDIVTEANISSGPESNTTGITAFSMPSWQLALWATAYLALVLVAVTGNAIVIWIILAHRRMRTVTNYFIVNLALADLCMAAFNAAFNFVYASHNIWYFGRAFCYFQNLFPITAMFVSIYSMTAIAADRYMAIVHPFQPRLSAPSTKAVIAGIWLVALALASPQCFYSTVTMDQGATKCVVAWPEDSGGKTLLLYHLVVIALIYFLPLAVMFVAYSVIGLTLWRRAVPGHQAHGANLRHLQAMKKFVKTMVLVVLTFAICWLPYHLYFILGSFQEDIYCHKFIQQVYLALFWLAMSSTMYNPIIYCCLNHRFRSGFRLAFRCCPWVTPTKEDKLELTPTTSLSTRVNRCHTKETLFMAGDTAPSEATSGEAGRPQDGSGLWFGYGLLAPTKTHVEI

NK3 = target: T2, NK3 (Homo sapiens, UniProt P29371); experiment: Signal transduction (ST), intracellular Ca++ (FLIPR), NK3; settings: read-out: pIC50 NK3 (converted)
T2 sequence (P29371 1-465): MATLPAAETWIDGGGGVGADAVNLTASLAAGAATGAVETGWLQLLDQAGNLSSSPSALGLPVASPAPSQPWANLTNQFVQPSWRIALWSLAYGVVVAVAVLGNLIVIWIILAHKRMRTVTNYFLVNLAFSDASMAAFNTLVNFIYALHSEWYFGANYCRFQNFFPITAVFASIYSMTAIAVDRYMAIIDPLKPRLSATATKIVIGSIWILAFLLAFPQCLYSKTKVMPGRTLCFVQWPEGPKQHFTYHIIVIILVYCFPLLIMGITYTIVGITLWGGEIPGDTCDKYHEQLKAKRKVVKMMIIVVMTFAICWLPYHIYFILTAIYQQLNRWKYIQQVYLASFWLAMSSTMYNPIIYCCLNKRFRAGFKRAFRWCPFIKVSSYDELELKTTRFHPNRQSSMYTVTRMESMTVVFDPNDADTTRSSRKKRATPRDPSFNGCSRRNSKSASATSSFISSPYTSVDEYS

Chain of NK1 (P25103 whole entry): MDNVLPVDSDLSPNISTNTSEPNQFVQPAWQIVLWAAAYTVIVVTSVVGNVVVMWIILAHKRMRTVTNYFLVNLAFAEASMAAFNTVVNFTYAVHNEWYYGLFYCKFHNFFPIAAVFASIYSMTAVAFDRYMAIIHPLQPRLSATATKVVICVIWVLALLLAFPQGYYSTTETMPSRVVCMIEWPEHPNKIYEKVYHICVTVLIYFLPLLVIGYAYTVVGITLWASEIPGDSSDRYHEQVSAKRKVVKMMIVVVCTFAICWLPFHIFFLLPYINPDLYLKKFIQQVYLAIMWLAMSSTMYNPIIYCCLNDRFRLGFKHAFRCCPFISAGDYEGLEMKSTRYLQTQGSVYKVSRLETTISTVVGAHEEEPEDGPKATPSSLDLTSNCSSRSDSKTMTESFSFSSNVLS

Compound | IC50 (NK1) [nM] | IC50 (NK2) [nM] | IC50 (NK3) [nM]
O=C(c1cc(CCOCc2ccccc2)cs1)N1CCC(N2CCN([C@H]3CCN(C(=O)c4cc(C(F)(F)F)cc(C(F)(F)F)c4)[C@H](Cc4ccccc4)C3)CC2)C1 (stereo partly drawn) [Compound 362] | 126 | 2510 | 2510
Cc1nnsc1C(=O)N1CCC(N2CCN(C3CCN(C(=O)c4cc(C(F)(F)F)cc(C(F)(F)F)c4)C(Cc4ccc(F)c(F)c4)C3)CC2)C1 (single isomer, unassigned) [Compound 253] | 5.01 | 398 | 501
O=C(C1CCOC1)N1CCC(N2CCN(C3CCN(C(=O)c4cc(C(F)(F)F)cc(C(F)(F)F)c4)C(Cc4ccc(Cl)c(Cl)c4)C3)CC2)C1 (single isomer, unassigned) [Compound 290] | 3.98 | 1580 | 398
O=C(c1cccc(O)c1)N1CCC(N2CCN([C@H]3CCN(C(=O)c4cc(C(F)(F)F)cc(C(F)(F)F)c4)[C@H](Cc4ccccc4)C3)CC2)C1 (stereo partly drawn) [Compound 332] | 5.01 | 1580 | 3160
Cn1cnc(C(=O)N2CCC(N3CCN([C@H]4CCN(C(=O)c5cc(C(F)(F)F)cc(C(F)(F)F)c5)[C@H](Cc5ccccc5)C4)CC3)C2)c1 (stereo partly drawn) [Compound 282] | 12.6 | 3980 | 3980
Cn1ccc(C(=O)N2CCC(N3CCN([C@H]4CCN(C(=O)c5cc(C(F)(F)F)cc(C(F)(F)F)c5)[C@H](Cc5ccccc5)C4)CC3)C2)c1 (stereo partly drawn) [Compound 23] | 31.6 | 3160 | 501
O=C(c1cccs1)N1CCC(N2CCN(C3CCN(C(=O)c4cc(C(F)(F)F)cc(C(F)(F)F)c4)C(Cc4ccc(F)c(F)c4)C3)CC2)C1 (single isomer, unassigned) [Compound 232] | 6.31 | 3160 | 126
O=C(c1cnccn1)N1CCC(N2CCN(C3CCN(C(=O)c4cc(C(F)(F)F)cc(C(F)(F)F)c4)C(Cc4ccc(F)c(F)c4)C3)CC2)C1 (single isomer, unassigned) [Compound 259] | 12.6 | 2000 | 501
O=C(c1cnccn1)N1CC[C@@H](N2CCN([C@H]3CCN(C(=O)c4cc(C(F)(F)F)cc(C(F)(F)F)c4)[C@H](Cc4ccc(Cl)c(Cl)c4)C3)CC2)C1 [Compound 286] | 6.31 | 1000 | 398
O=C(c1ccsc1)N1CC[C@H](N2CCN([C@H]3CCN(C(=O)c4cc(C(F)(F)F)cc(C(F)(F)F)c4)[C@H](Cc4ccc(Cl)c(Cl)c4)C3)CC2)C1 [Compound 325] | 15.8 | 398 | 631
O=C(Nc1ccccc1F)N1CCC(N2CCN([C@H]3CCN(C(=O)c4cc(C(F)(F)F)cc(C(F)(F)F)c4)[C@H](Cc4ccccc4)C3)CC2)C1 (stereo partly drawn) [Compound 284] | 12.6 | 5010 | 3980
CC(C)(C)C(=O)N1CCC(N2CCN([C@@H]3CCN(C(=O)c4cc(C(F)(F)F)cc(C(F)(F)F)c4)[C@H](Cc4ccc(F)c(F)c4)C3)CC2)C1 (single isomer, unassigned) [Compound 365] | 7.94 | 2510 | 501
O=C(c1ccccc1F)N1CCC(N2CCN(C3CCN(C(=O)c4cc(C(F)(F)F)cc(C(F)(F)F)c4)C(Cc4ccc(Cl)c(Cl)c4)C3)CC2)C1 (stereo not drawn) [Compound 174] | 20 | 2000 | 1000
O=C(C1CCOC1)N1CCC(N2CCN(C3CCN(C(=O)c4cc(C(F)(F)F)cc(C(F)(F)F)c4)C(Cc4ccc(F)c(F)c4)C3)CC2)C1 (single isomer, unassigned) [Compound 270] | 3.16 | 2000 | 1260
CN(C(=O)C1CC1)C(C)(C)C(=O)N1CCC(N2CCN(C3CCN(C(=O)c4cc(C(F)(F)F)cc(C(F)(F)F)c4)C(Cc4ccccc4)C3)CC2)C1 (stereo not drawn) [Compound 310] | 7.94 | 2000 | 3980
COC(=O)c1sccc1S(=O)(=O)N1CCC(N2CCN([C@H]3CCN(C(=O)c4cc(C(F)(F)F)cc(C(F)(F)F)c4)[C@H](Cc4ccccc4)C3)CC2)C1 (stereo partly drawn) [Compound 77] | 20 | 2510 | 501
O=C(c1ccccc1Cl)N1CC[C@@H](N2CCN([C@H]3CCN(C(=O)c4cc(C(F)(F)F)cc(C(F)(F)F)c4)[C@H](Cc4ccc(Cl)c(Cl)c4)C3)CC2)C1 [Compound 266] | 7.94 | 1000 | 316
O=C(c1cc(C(F)(F)F)cc(C(F)(F)F)c1)N1CC[C@H](N2CCN(C3CCN(S(=O)(=O)c4ccc(CCO)s4)C3)CC2)C[C@H]1Cc1ccccc1 (stereo partly drawn) [Compound 351] | 10 | 251 | 1000
O=C(c1cc(COCc2ccccc2)cs1)N1CCC(N2CCN([C@H]3CCN(C(=O)c4cc(C(F)(F)F)cc(C(F)(F)F)c4)[C@H](Cc4ccccc4)C3)CC2)C1 (stereo partly drawn) [Compound 352] | 63.1 | 6310 | 3160
O=C(c1ccccc1Cl)N1CCC(N2CCN([C@H]3CCN(C(=O)c4cc(C(F)(F)F)cc(C(F)(F)F)c4)[C@H](Cc4ccccc4)C3)CC2)C1 (stereo partly drawn) [Compound 17] | 15.8 | 7940 | 251
O=C(c1cc(C(F)(F)F)cc(C(F)(F)F)c1)N1CCC(N2CCN(C3CCN(c4ncccn4)C3)CC2)CC1Cc1ccccc1 (stereo not drawn) [Compound 5] | 31.6 | 6310 | 631
O=C(c1cccs1)N1CC[C@@H](N2CCN([C@H]3CCN(C(=O)c4cc(C(F)(F)F)cc(C(F)(F)F)c4)[C@H](Cc4ccccc4)C3)CC2)C1 [Compound 321] | 12.6 | 3160 | 251
COc1ccc(OC)c(S(=O)(=O)N2CCC(N3CCN([C@H]4CCN(C(=O)c5cc(C(F)(F)F)cc(C(F)(F)F)c5)[C@H](Cc5ccccc5)C4)CC3)C2)c1 (stereo partly drawn) [Compound 411] | 20 | 2510 | 1000

Other lines, results leading:

IC50 (NK1) [nM] | IC50 (NK2) [nM] | IC50 (NK3) [nM] | Compound
20 | 251 | 1000 | O=C(c1cc(C(F)(F)F)cc(C(F)(F)F)c1)N1CC[C@H](N2CCN([C@@H]3CCN(S(=O)(=O)c4cccs4)C3)CC2)C[C@H]1Cc1ccc(Cl)c(Cl)c1 [Compound 268]
25.1 | 7940 | 631 | Cc1ccc(C(=O)N2CCC(N3CCN([C@H]4CCN(C(=O)c5cc(C(F)(F)F)cc(C(F)(F)F)c5)[C@H](Cc5ccccc5)C4)CC3)C2)s1 (stereo partly drawn) [Compound 43]
7.94 | 631 | 200 | O=C(c1ccco1)N1CC[C@@H](N2CCN([C@H]3CCN(C(=O)c4cc(C(F)(F)F)cc(C(F)(F)F)c4)[C@H](Cc4ccc(Cl)c(Cl)c4)C3)CC2)C1 [Compound 267]
20 | 794 | 251 | O=C(c1ccoc1)N1CCC(N2CCN(C3CCN(C(=O)c4cc(C(F)(F)F)cc(C(F)(F)F)c4)C(Cc4ccc(Cl)c(Cl)c4)C3)CC2)C1 (stereo not drawn) [Compound 173]
6.31 | 7940 | 1580 | Cc1nnsc1C(=O)N1CCC(N2CCN(C3CCN(C(=O)c4cc(C(F)(F)F)cc(C(F)(F)F)c4)C(Cc4ccccc4)C3)CC2)C1 (single isomer, unassigned) [Compound 380]
100 | 6310 | 5010 | O=C(c1ccoc1)N1CC[C@H](N2CCN([C@@H]3CCN(C(=O)c4cc(C(F)(F)F)cc(C(F)(F)F)c4)[C@@H](Cc4ccc(Cl)c(Cl)c4)C3)CC2)C1 [Compound 250]
6.31 | 5010 | 2000 | N#Cc1ccc(C(=O)N2CCC(N3CCN([C@H]4CCN(C(=O)c5cc(C(F)(F)F)cc(C(F)(F)F)c5)[C@H](Cc5ccccc5)C4)CC3)C2)cc1 (stereo partly drawn) [Compound 271]
15.8 | 501 | 501 | O=C(c1ccoc1)N1CC[C@H](N2CCN([C@H]3CCN(C(=O)c4cc(C(F)(F)F)cc(C(F)(F)F)c4)[C@H](Cc4ccc(Cl)c(Cl)c4)C3)CC2)C1 [Compound 326]
3.98 | 2510 | 6310 | O=C(C1CCOC1)N1CCC(N2CCN(C3CCN(C(=O)c4cc(C(F)(F)F)cc(C(F)(F)F)c4)C(Cc4ccc(F)c(F)c4)C3)CC2)C1 (single isomer, unassigned) [Compound 269]
7.94 | 5010 | 316 | COc1ccccc1C(=O)N1CCC(N2CCN([C@H]3CCN(C(=O)c4cc(C(F)(F)F)cc(C(F)(F)F)c4)[C@H](Cc4ccccc4)C3)CC2)C1 (stereo partly drawn) [Compound 14]
